“And” between values parts separate entries of the source, which are not always exact repeats. Equal entries are not always repeated. “Also recorded” adds a separate entry of the source. Where two headings read alike, the source gives them in different places.
Assays:
mOR203-1 [1] = settings: mOR203-1 expressed in HEK cells; cited from earlier work
mOR256-17 [2] = target: T1, mOR256-17 (Mus musculus, UniProt P23275); settings: cited from earlier work
T1 sequence (P23275 1-312): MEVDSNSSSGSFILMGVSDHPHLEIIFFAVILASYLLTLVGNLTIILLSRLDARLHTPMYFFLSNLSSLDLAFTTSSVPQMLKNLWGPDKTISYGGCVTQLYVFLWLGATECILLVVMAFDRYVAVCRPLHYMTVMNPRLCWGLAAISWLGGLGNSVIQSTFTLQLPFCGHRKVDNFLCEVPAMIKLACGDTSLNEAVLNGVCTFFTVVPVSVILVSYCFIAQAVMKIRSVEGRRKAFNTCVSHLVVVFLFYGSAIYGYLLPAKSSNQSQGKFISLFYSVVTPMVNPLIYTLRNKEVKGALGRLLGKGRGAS

mOR203-1 [3] = experiment: Vapor response of mOR-functionalized carbon nanotube transistor; settings: for NT device response: FIG. 12A
mOR256-17 [4] = target: T1, mOR256-17; experiment: Xenopus oocyte expression with robotic electrophysiology; settings: mOR 256-17
[5] = system: mouse olfactory receptor proteins (mORs); experiment: Vapor response of mOR-functionalized NT devices, mOR not specified; assay type: binding; settings: all three mORs
[6] = Control vapor response of bare nanotube devices and devices with Ni-NTA and empty digitonin micelles; settings: bare NT transistors and devices treated with Ni-NTA and empty digitonin micelles
mOR256-17 [7] = target: T1, mOR256-17; experiment: Vapor response of mOR-functionalized carbon nanotube transistor, high-speed data acquisition; assay type: binding; set-up: made in house; host or cells: Sf9 insect cells (Bac-to-Bac, pFastBac HT, Invitrogen); settings: cyclohexanone 2250 ppm, mOR 256-17 in nanodiscs
mOR174-9 = target: T2, mOR174-9 (Mus musculus, UniProt Q920P2); experiment: Vapor response of mOR-functionalized carbon nanotube transistor
T2 sequence (Q920P2 1-313): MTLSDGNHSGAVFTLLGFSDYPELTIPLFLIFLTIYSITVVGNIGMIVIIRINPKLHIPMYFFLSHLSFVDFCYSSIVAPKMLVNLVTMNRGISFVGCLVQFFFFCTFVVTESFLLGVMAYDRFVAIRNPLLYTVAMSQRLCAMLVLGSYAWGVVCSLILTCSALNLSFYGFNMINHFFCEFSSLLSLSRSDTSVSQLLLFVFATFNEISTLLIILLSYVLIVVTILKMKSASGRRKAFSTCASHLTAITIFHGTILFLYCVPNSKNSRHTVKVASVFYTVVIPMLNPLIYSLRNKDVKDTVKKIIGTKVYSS

[8] = mOR203-1 in digitonin micelles, single sensor, FIG. 4

## CCCCCC(C)=O [2-heptanone]
mOR203-1 [1]
  HEK data response: strong response
mOR256-17 [2]
  response of mOR256-17 according to published reports: not
mOR203-1 [3]; mOR 203-1, surfactant stabilized and nanodisc stabilized
  NT device response with both packaging methods: expected response
mOR203-1 [3]; mOR203-1 in digitonin micelles
  NT device response: strong response
mOR203-1 [3]; [8]
  change in conductance: negative changes in conductance

## CC(=O)c1ccccc1 [acetophenone]
mOR203-1 [1]
  HEK data response: lack of response
mOR203-1 [3]; mOR203-1 in digitonin micelles
  NT device response: lack of response

## O=C1CCCCC1 [cyclohexanone]
mOR256-17 [4]
  oocyte measurement response, in words: show a response
[5]
  response of the inventive devices: strong response
[6]
  response of control devices without mOR: small response
mOR256-17 [7]
  response time constant, first of double exponential fit (FIG. 11D): 2.06 ± 0.01 s
  response time constant, second of double exponential fit (FIG. 11D): 25.51 ± 0.04 s
  sensing response time constant, first of double exponential fit (FIG. 3): 9.1 s and 9.08 ± 0.04 s
  sensing response time constant, second of double exponential fit (FIG. 3): 41.2 s and 41.2 ± 0.4 s
mOR256-17 [2]
  response of mOR256-17 according to published reports: responds
mOR174-9; mOR 174-9, surfactant stabilized and nanodisc stabilized
  NT device response shared by both packaging methods: response shared between the two packaging methods

## C=CCc1ccc(O)c(OC)c1 [eugenol]
[6]
  response of control devices without mOR: no change in conductance
mOR174-9
  NT device response shared by both packaging methods: expected response
  sensing response (change in device current): large positive responses; also recorded: large positive sensing response
mOR203-1 [3]; [8]
  change in conductance: positive changes in conductance

## CCCCCCC=O [heptanal]
mOR203-1 [1]
  HEK data response: lack of response
mOR256-17 [2]
  response of mOR256-17 according to published reports: not
mOR203-1 [3]; mOR203-1 in digitonin micelles
  NT device response: lack of response

## COC(=O)c1ccccc1 [methyl benzoate]
mOR203-1 [3]
  change in conductance: no change in conductance

## CCCCCOC(C)=O [n-amyl acetate]
mOR203-1 [3]; [8]
  change in conductance: negative changes in conductance
